Results on 5 compounds are retold here after ChEMBL document CHEMBL4368855, “Novel tricyclic glycal-based TRIB1 inducers that reprogram LDL metabolism in hepatic cells” (Medchemcomm, 2018).

Structures are written as SMILES. Converted amounts (≈) assume the structure as drawn. The source made the active and inactive calls. No cut-off for these calls is given here.

Series [1] deals with HepG2. Nature of the series: Induction of TRIB1 expression in human HepG2 cells measured after overnight incubation by qRT-PCR analysis. In kind it is functional, cell-based.
In series [2] the test system is HepG2. Nature of the series: Up regulation of TRIB1 gene expression in human HepG2 cells measured after 6 hrs by qRT-PCR analysis relative to control. In kind it is functional.
In series [3] the test system is HepG2. Nature of the series: Up regulation of LDLR gene expression in human HepG2 cells measured after 6 hrs by qRT-PCR analysis relative to control. In kind it is functional.
In series [4] the test system is HepG2. Nature of the series: Up regulation of LDLR gene expression in human HepG2 cells measured after 6 hrs by qRT-PCR analysis. The conditions noted are these: HepG2, 6 h. In kind it is functional, cell-based.
The test system of series [5] is HepG2. The series is described as follows: Up regulation of TRIB1 gene expression in human HepG2 cells measured after 6 hrs by qRT-PCR analysis. In kind it is functional, cell-based. The conditions noted are these: HepG2, 6 h.
Series [6] is described as follows: Stability in mouse liver microsomes assessed as parent compound remaining at 1 uM incubated for 60 mins under shaking condition by UPLC/MS analysis. In kind it is ADME, Microsome. The conditions noted are these: read-out: Stability.
The subject of series [7] is HepG2. The series is described as follows: Down regulation of PCSK9 gene expression in human HepG2 cells measured after 24 hrs by qRT-PCR analysis. It counts as functional, cell-based. The conditions noted are these: HepG2, 24 h.
The nature of series [8]: Solubility of the compound in 1% DMSO/phosphate buffered saline at pH 7.4 incubated for 18 hrs under shaking condition by UPLC/MS analysis. It counts as physicochemical.
Series [9] is described as follows: Half life in C57BL/6 mouse liver at 10 mg/kg, ip administered as single dose by mass spectrometry. It counts as ADME, organism-based.
A short description of series [10]: AUC (infinity) in C57BL/6 mouse liver at 10 mg/kg, ip administered as single dose by mass spectrometry. In kind it is ADME, organism-based. Details: dose 10 mg/kg, route intraperitoneal, time infinity. The conditions noted are these: in vivo.
Series [11] can be described thus: Cmax in C57BL/6 mouse plasma at 10 mg/kg, ip administered as single dose by mass spectrometry. It counts as ADME, organism-based. Details: dose 10 mg/kg, route intraperitoneal.
A short description of series [12]: Cmax in C57BL/6 mouse liver at 10 mg/kg, ip administered as single dose by mass spectrometry. It counts as ADME, organism-based. Details: dose 10 mg/kg, route intraperitoneal.
Series [13] in a line: Unbound fraction in C57BL/6 mouse liver at 10 mg/kg, ip administered as single dose by mass spectrometry. It counts as ADME, organism-based.
Series [14] can be described thus: Tmax in C57BL/6 mouse plasma at 10 mg/kg, ip administered as single dose by mass spectrometry. In kind it is ADME, organism-based.
A short description of series [15]: AUC (infinity) in C57BL/6 mouse plasma at 10 mg/kg, ip administered as single dose by mass spectrometry. It counts as ADME, organism-based. Details: dose 10 mg/kg, route intraperitoneal, time infinity. The conditions noted are these: in vivo.
Series [16] can be described thus: Clearance in C57BL/6 mouse plasma at 10 mg/kg, ip administered as single dose by mass spectrometry. In kind it is ADME, organism-based.
Series [17] can be described thus: Apparent volume of distribution in C57BL/6 mouse plasma at 10 mg/kg, ip administered as single dose by mass spectrometry. It counts as ADME, organism-based. The conditions noted are these: in vivo.
The nature of series [18]: Tmax in C57BL/6 mouse liver at 10 mg/kg, ip administered as single dose by mass spectrometry. In kind it is ADME, organism-based.
Series [19] in a line: Half life in C57BL/6 mouse plasma at 10 mg/kg, ip administered as single dose by mass spectrometry. In kind it is ADME, organism-based.
Series [20] is described as follows: Apparent volume of distribution in C57BL/6 mouse liver at 10 mg/kg, ip administered as single dose by mass spectrometry. In kind it is ADME, organism-based. The conditions noted are these: in vivo.
Series [21] relates to HepG2. The series is described as follows: Up regulation of LDLR expression in human HepG2 cells after 24 hrs by ELISA. In kind it is functional, cell-based.
The test system of series [22] is HepG2. The series is described as follows: Induction of LDLR expression in human HepG2 cells by luminex assay. It counts as functional, cell-based.
Series [23] has as its system HepG2. The series is described as follows: Inhibition of PCSK9 secretion in human HepG2 cells by luminex assay. In kind it is functional, cell-based.
Series [24] concerns HepG2. The series is described as follows: Induction of LDL uptake in human HepG2 cells preincubated for 20 hrs followed by BODIPY-FL-LDL addition and measured after 5 hrs by Hoechst 33342 staining based microscopic analysis. It counts as functional, cell-based.
In series [25] the test system is HepG2. Nature of the series: Down regulation of PCSK9 expression in human HepG2 cells after 24 hrs by ELISA. It counts as functional, cell-based.

In series [1], `CN1C(=O)c2cc(NC(=O)c3ccc(C(F)(F)F)cc3)ccc2OC[C@H]2O[C@@H](CC(=O)NC3Cc4ccccc4C3)CC[C@@H]21` yielded an EC50 above 25 µM.
For `CN1C(=O)c2cc(NC(=O)c3ccc(C(F)(F)F)cc3)ccc2OC[C@@H]2O[C@H](CNC(=O)CC(C)(C)C)CC[C@@H]21`, the max activation in series [2] turned out to be 6.6; in series [3], 1.9. Further, the EC50 in series [4] was 0.5 µM; in [5] it was 0.72 µM; in [7], 0.1 µM. Moreover, the remaining at 1 h, 1 µM in series [6] turned out to be 0%. Also, the solubility (kinetic) at 18 h in series [8] amounted to 6 µM (≈ 3.37 µg/mL).
As to `CN1C(=O)c2cc(NC(=O)c3ccc(C(F)(F)F)cc3)ccc2OC[C@@H]2O[C@H](CNc3nnc(C4CCC4)o3)CC[C@@H]21`, the max activation in series [2] came out at 4.6; in series [3], 3.8. The half-maximal effective concentration (EC50) was determined as 1.45 µM in series [4], 0.32 µM in [5] and 0.095 µM in [7]. For the same compound, the half-life in [9] was 1.78 h; in [19] it was 1.46 h. The figures for the AUC in [10] and in series [15] were 35928 µg/L/h and 6464 µg/L/h, respectively. Also, the Cmax in [11] was found to be 3050 ng/mL; in series [12] it was 13800 ng/mL. Further, the fraction unbound in series [13] stood at 0.02. Further, the Tmax in series [14] and in series [18] was 1 h throughout. The compound further gave a CL/F in [16] of 25.8 mL/min/kg. In addition, the results for the Vz in [17] and in [20] were 3.25 L/kg and 0.72 L/kg, respectively. The remaining at 1 h, 1 µM in series [6] is 18%. In series [8], the kinetic solubility at 18 h worked out at 27.5 µM (≈ 16.1 µg/mL).
Turning to `CN1C(=O)c2cc(NC(=O)c3ccc(C(F)(F)F)cc3)ccc2OC[C@@H]2O[C@H](CNC(=O)[C@@H]3CCCO3)CC[C@@H]21`, the max activation in series [2] was found to be 3.7; in series [3], 4.3. In addition, the EC50 is 2.45 µM in [4], 1.1 µM in [5] and 0.025 µM in [7]. In addition, the remaining at 1 h, 1 µM in series [6] is 54%. Also, in [8], the solubility (kinetic) at 18 h worked out at 90 µM (≈ 50.5 µg/mL).
Turning to `CN1C(=O)c2cc(NC(=O)c3ccc(C(F)(F)F)cc3)ccc2OC[C@@H]2O[C@@H](CC(=O)NC3Cc4ccccc4C3)CC[C@@H]21`, the EC50 in series [1] stood at 2.03 µM. The result in series [21], in [22], in [24] and in series [25] was Active. In addition, the inhibition entry in series [23] was “Active”.
